pKi: −log10 of the molar value.
Assay: Compound was evaluated for its ability to displace [3H](+)-pentazocine from sigma receptor in Guinea pig brain

Compared with `c1ccc([C@]2(N3CCCCC3)CC[C@@H]3C[C@@H]32)cc1`, `c1ccc([C@@]2(N3CCCCC3)CC[C@H]3C[C@H]32)cc1` is 0.81 log units higher in pKi: 5.14 for the first, 5.95 for the second.

In the case of `c1ccc([C@]2(N3CCCCC3)CC[C@H]3C[C@H]32)cc1`, the pKi was 5.35.
